This passage reports IC50 results from patent publication US20250376473A1, “PRMTS INHIBITOR AND USE THEREOF” (Cytosinlab Therapeutics Co., Ltd., priority 2022, published 2025).

For one test, the system named is HCT116 MTAP WT cells. Briefly: Proliferation inhibition of HCT116 cells in vitro (CellTiter Glo). The test is classed as cell-based. Conditions: 6 days, 9 concentrations starting from 30 μM, read-out: Cell proliferation inhibition rate HCT116 MTAP WT IC50 (nm). The method in brief: (§1)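 HCT116 (MTAP WT) or CRISPR MTAP-knockout HCT116 cells (100 per well) were exposed for 6 days at 37 °C to 9-point, 3-fold dilutions starting at 30 μM (WT) or 3 μM (KO), with 0.4% DMSO final. Viability was read by CellTiter-Glo luminescence, and IC50 came from a four-parameter fit.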
A general note: Cellular ATP, detected with luciferase, serves as a proxy for viable cell number.

Test [1] concerns HCT116-MTAP-KO cells (HCT116 MTAP null). Briefly: Proliferation inhibition of HCT116 MTAP-KO cells in vitro (CellTiter Glo). The test is classed as cell-based. The settings on record: 6 days, 9 concentrations starting from 3 μM, read-out: Cell proliferation inhibition rate HCT116 MTAP null IC50 (nm). The method in brief:
as §1

Where two headings read alike, the source gives them in different places.

As for `Cc1ncc2c(N)nc3cc(F)c(C(=O)N(Cc4ccc(C(F)(F)F)cn4)c4ccn(CCO)n4)cc3n12` [Example 117], the IC50 with HCT116 MTAP WT cells (Homo sapiens, HCT-116, 144 h) is 1000 to 10000 nM; in test [1] (HCT116-MTAP null, 144 h) it was 100 to 1000 nM.

As to `Cc1ncn2c1c(N)nc1cc(F)c(C(=O)N3C(C)COCC3c3ccc(C4CCOCC4)cn3)cc12` (stereo not drawn) [Example 112], the IC50 is 1000 to 10000 nM in the test with HCT116 MTAP WT cells (Homo sapiens, HCT-116, 144 h) and less than 100 nM in test [1] (HCT116-MTAP null, 144 h).

Regarding `Cc1ncccc1N(Cc1ccc(C(F)(F)F)cn1)C(=O)c1cc2c(cc1F)nc(N)c1cnc(C)n12` [Example 143, 4-Amino-7-fluoro-1-methyl-N-(2-methylpyridin-3-yl)-N-(5-(trifluoromethyl)pyridin-2-ylmethyl)imidazolo[1,5-a]quinoxalin-8-carboxamide], the IC50 in the test with HCT116 MTAP WT cells (Homo sapiens, HCT-116, 144 h) is 100 to 1000 nM; in test [1] (HCT116-MTAP null, 144 h), less than 100 nM.

As for `Cc1ncc2c(N)nc3cc(F)c(C(=O)N(Cc4cnn(CC(F)(F)F)c4)c4ccnn4C)cc3n12` [Example 319], the IC50 in the test on HCT116 MTAP WT cells (Homo sapiens, HCT-116, 144 h) lay in the range of 1000 to 10000 nM; in test [1] (HCT116-MTAP null, 144 h) it was 100 to 1000 nM.

For `Cc1ccc(CN(C(=O)c2cc3c(cc2F)nc(N)c2cnc(C)n23)c2ccnn2C)nc1` [Example 214], the IC50 in the test on HCT116 MTAP WT cells (Homo sapiens, HCT-116, 144 h) is 1000 to 10000 nM; in test [1] (HCT116-MTAP null, 144 h) it was less than 100 nM.

With `Cc1ncn2c1c(N)nc1cc(F)c(C(=O)N3C(C)COCC3c3ccc(C(F)(F)F)cn3)cc12` (stereo not drawn) [Example 155], the IC50 is 1000 to 10000 nM in the test with HCT116 MTAP WT cells and less than 100 nM in test [1].

As to `COc1ccc(N(Cc2ccc(C(F)(F)F)cn2)C(=O)c2cc3c(cc2F)nc(N)c2cnc(C)n23)cn1` [Example 124], the IC50 in the test with HCT116 MTAP WT cells (Homo sapiens, HCT-116, 144 h) was 1000 to 10000 nM; in test [1] (HCT116-MTAP null, 144 h), less than 100 nM.

Regarding `Cc1cn2c(n1)c(N)nc1cc(F)c(C(=O)N3[C@H](C)COC[C@@H]3c3cn4cc(C(F)(F)F)ccc4n3)cc12` [Example 31], the IC50 is 100 to 1000 nM in the test with HCT116 MTAP WT cells (Homo sapiens, HCT-116, 144 h) and less than 100 nM in test [1] (HCT116-MTAP null, 144 h).

As for `Cc1ncc2c(N)nc3cc(F)c(C(=O)N(Cc4ccc(OCC(F)(F)F)cn4)c4cnn(C)c4)cc3n12` [Example 116], the IC50 in the test with HCT116 MTAP WT cells (Homo sapiens, HCT-116, 144 h) was in the range of 1000 to 10000 nM; in test [1] (HCT116-MTAP null, 144 h) it was 100 to 1000 nM.

As to `Cc1ncc2c(N)nc3cc(F)c(C(=O)N(Cc4ccc(C(F)(F)F)cn4)c4cnnn4C)cc3n12` [Example 209], the IC50 in the test with HCT116 MTAP WT cells (Homo sapiens, HCT-116, 144 h) was 1000 to 10000 nM; in test [1] (HCT116-MTAP null, 144 h), less than 100 nM.

As for `Cc1nn(C)cc1N(Cc1ccc(C(F)(F)F)cn1)C(=O)c1ccc2nc(N)c3c(C)nc(C)n3c2c1` [Example 190], the IC50 fell in the range of 1000 to 10000 nM in the test with HCT116 MTAP WT cells (Homo sapiens, HCT-116, 144 h) and 100 to 1000 nM in test [1] (HCT116-MTAP null, 144 h).

For the compound `Cc1ncn2c1c(N)nc1ccc(C(=O)N(Cc3nc(-c4ccccn4)cs3)CC(C)C)cc12` [Example 307], the IC50 with HCT116 MTAP WT cells (Homo sapiens, HCT-116, 144 h) is 1000 to 10000 nM; in test [1] (HCT116-MTAP null, 144 h), less than 100 nM.

For `COCCN(C)c1ccc(CN(C(=O)c2cc3c(cc2F)nc(N)c2cnc(C)n23)c2ccnn2C)nc1` [Example 320], the IC50 with HCT116 MTAP WT cells (Homo sapiens, HCT-116, 144 h) lay in the range of 1000 to 10000 nM; in test [1] (HCT116-MTAP null, 144 h), 100 to 1000 nM.

Regarding `Cc1nn(C)cc1N(Cc1ccc(C(F)(F)F)nc1)C(=O)c1cc2c(cc1F)nc(N)c1cnc(C)n12` [Example 182], the IC50 is 1000 to 10000 nM in the test with HCT116 MTAP WT cells (Homo sapiens, HCT-116, 144 h) and less than 100 nM in test [1] (HCT116-MTAP null, 144 h).

As to `Cc1ncc2c(N)nc3cc(F)c(C(=O)N4C(C)COCC4c4ccc(OC5CC5)cc4)cc3n12` (stereo not drawn) [Example 87], the IC50 in the test with HCT116 MTAP WT cells (Homo sapiens, HCT-116, 144 h) is 1000 to 10000 nM; in test [1] (HCT116-MTAP null, 144 h), less than 100 nM.

With `CCN(Cc1ccc(C(F)(F)F)cn1)C(=O)c1ccc2nc(N)c3c(C)nc(C)n3c2c1` [Example 15, 4-Amino-N-ethyl-1,3-dimethyl-N-((5-trifluoromethyl)pyridin-2-ylmethyl) imidazolo[1,5-a]quinoxalin-8-carboxamide], the IC50 was in the range of 1000 to 10000 nM in the test with HCT116 MTAP WT cells (Homo sapiens, HCT-116, 144 h) and 100 to 1000 nM in test [1] (HCT116-MTAP null, 144 h).

As to `CCn1cc(N(Cc2ccc(C(F)(F)F)cn2)C(=O)c2cc3c(cn2)nc(N)c2cnc(C)n23)c(C)n1` [Example 192], the IC50 in the test on HCT116 MTAP WT cells (Homo sapiens, HCT-116, 144 h) was 1000 to 10000 nM; in test [1] (HCT116-MTAP null, 144 h), less than 100 nM.

For `COCCN(Cc1cn2ccccc2n1)C(=O)c1cc2c(cc1F)nc(N)c1cnc(C)n12` [Example 27], the IC50 was 100 to 1000 nM in the test on HCT116 MTAP WT cells (Homo sapiens, HCT-116, 144 h) and less than 100 nM in test [1] (HCT116-MTAP null, 144 h).

As to `Cc1c(N(Cc2ccc(C(F)(F)F)cn2)C(=O)c2cc3c(cc2F)nc(N)c2cnc(C)n23)cnn1CC(F)F` [Example 180], the IC50 was 1000 to 10000 nM in the test with HCT116 MTAP WT cells (Homo sapiens, HCT-116, 144 h) and less than 100 nM in test [1] (HCT116-MTAP null, 144 h).

For `Cc1nn(CCO)cc1N(Cc1ccc(C(F)(F)F)cn1)C(=O)c1cc2c(cc1F)nc(N)c1c(C)ncn12` [Example 165], the IC50 in the test with HCT116 MTAP WT cells (Homo sapiens, HCT-116, 144 h) was 1000 to 10000 nM; in test [1] (HCT116-MTAP null, 144 h) it was less than 100 nM.

For `Cc1ncc2c(N)nc3cc(F)c(C(=O)N(Cc4cnc(C5CC5)n4C)c4ccnn4C)cc3n12` [Example 318], the IC50 is 1000 to 10000 nM in the test with HCT116 MTAP WT cells (Homo sapiens, HCT-116, 144 h) and 100 to 1000 nM in test [1] (HCT116-MTAP null, 144 h).

As for `CCN(C(=O)c1cc2c(cc1F)nc(N)c1cnc(C)n12)C1COc2cc(-c3cnn(C(F)(F)F)c3)ccc21` (stereo not drawn) [Example 75], the IC50 was in the range of 1000 to 10000 nM in the test with HCT116 MTAP WT cells (Homo sapiens, HCT-116, 144 h) and 100 to 1000 nM in test [1] (HCT116-MTAP null, 144 h).

In the case of `CCN(Cc1cn2cc(C(F)(F)F)ccc2n1)C(=O)c1cc2c(cc1F)nc(N)c1c(C)ncn12` [Example 285], the IC50 was 1000 to 10000 nM in the test on HCT116 MTAP WT cells (Homo sapiens, HCT-116, 144 h) and less than 100 nM in test [1] (HCT116-MTAP null, 144 h).

On to `COc1cc(N(Cc2ccc(C(F)(F)F)cn2)C(=O)c2cc3c(cc2F)nc(N)c2cnc(C)n23)nn1C` [Example 122], for which the IC50 is 1000 to 10000 nM in the test with HCT116 MTAP WT cells (Homo sapiens, HCT-116, 144 h) and 100 to 1000 nM in test [1] (HCT116-MTAP null, 144 h).
